Experiments:
Assay type in all cases: in vivo
Conditions in all cases: Rate 1000 g/ha; evaluated after 13 days
[1] = tested on: Alopecurus myosuroides (ALOMY); assay: B1 pre-emergence herbicidal activity
Description: (§1) Seeds of a variety of test species were sown in standard soil in pots: Triticum aestivium (TRZAW), Oryza sativa (ORYSA), Avena fatua (AVEFA), Alopecurus myosuroides (ALOMY), Echinochloa crus-galli (ECHCG), Lolium perenne (LOLPE). After cultivation for one day (pre-emergence) under controlled conditions in a glasshouse (at 24/16° C., day/night; 14 hours light; 65% humidity), the plants were sprayed with an aqueous spray solution derived from the formulation of the technical active ingredient in acetone/water (50:50) solution containing 0.5% Tween 20 (polyoxyethelyene sorbitan monolaurate, CAS RN 9005-64-5). The test plants were then grown in a glasshouse under controlled conditions (at 24/16° C., day/night; 14 hours light; 65% humidity) and watered twice daily. After 13 days, the test was evaluated (5=total damage to plant; 0=no damage to plant).

[2] = tested on: Avena fatua (AVEFA); assay: B1 pre-emergence herbicidal activity
Description: as §1

[3] = tested on: Echinochloa crus-galli (ECHCG); assay: B1 pre-emergence herbicidal activity
Description: as §1

[4] = tested on: Lolium perenne (LOLPE); assay: B1 pre-emergence herbicidal activity
Description: as §1

[5] = tested on: Oryza sativa (ORYSA); assay: B1 pre-emergence herbicidal activity
Description: as §1

[6] = tested on: Triticum aestivium (TRZAW); assay: B1 pre-emergence herbicidal activity
Description: as §1

[7] = tested on: Alopecurus myosuroides (ALOMY); assay: B2 post-emergence herbicidal activity
Description: (§2) Seeds of a variety of test species were sown in standard soil in pots: Triticum aestivium (TRZAW), Oryza sativa (ORYSA), Avena fatua (AVEFA), Alopecurus myosuroides (ALOMY), Echinochloa crus-galli (ECHCG), Lolium perenne (LOLPE). After 8 days cultivation (post-emergence) under controlled conditions in a glasshouse (at 24/16° C., day/night; 14 hours light; 65% humidity), the plants were sprayed with an aqueous spray solution derived from the formulation of the technical active ingredient in acetone/water (50:50) solution containing 0.5% Tween 20 (polyoxyethelyene sorbitan monolaurate, CAS RN 9005-64-5). The test plants were then grown in a glasshouse under controlled conditions (at 24/16° C., day/night; 14 hours light; 65% humidity) and watered twice daily. After 13 days, the test was evaluated (5=total damage to plant; 0=no damage to plant).

[8] = tested on: Avena fatua (AVEFA); assay: B2 post-emergence herbicidal activity
Description: as §2

[9] = tested on: Echinochloa crus-galli (ECHCG); assay: B2 post-emergence herbicidal activity
Description: as §2

[10] = tested on: Lolium perenne (LOLPE); assay: B2 post-emergence herbicidal activity
Description: as §2

[11] = tested on: Oryza sativa (ORYSA); assay: B2 post-emergence herbicidal activity
Description: as §2

[12] = tested on: Triticum aestivium (TRZAW); assay: B2 post-emergence herbicidal activity
Description: as §2

**Q.** For `CN(C(=O)OC(C)(C)C)c1c(Cl)c(-c2cccnc2)nn1C` [Compound A39], which “Control of ALOMY after pre-emergence application (damage score 0-5)” value [1] is on record?
**A.** The value was 0.

**Q.** And the “Control of AVEFA after pre-emergence application (damage score 0-5)” value [2]?
**A.** Its value is 4.

**Q.** And the “Control of ECHCG after pre-emergence application (damage score 0-5)” value [3]?
**A.** Its value is 3.

**Q.** And the “Control of LOLPE after pre-emergence application (damage score 0-5)” value [4]?
**A.** The value was 0.

**Q.** And the “Control of ORYSA after pre-emergence application (damage score 0-5)” value [5]?
**A.** Its value is 1.

**Q.** And the “Control of TRZAW after pre-emergence application (damage score 0-5)” value [6]?
**A.** Its value is 0.

**Q.** What about the “Control of ALOMY after post-emergence application (damage score 0-5)” value [7] of the same compound?
**A.** The value was 2.

**Q.** And the “Control of AVEFA after post-emergence application (damage score 0-5)” value [8]?
**A.** Its value is 1.

**Q.** What about the “Control of ECHCG after post-emergence application (damage score 0-5)” value [9] of the same compound?
**A.** The value was 4.

**Q.** And the “Control of LOLPE after post-emergence application (damage score 0-5)” value [10]?
**A.** Its value is 3.

**Q.** What about the “Control of ORYSA after post-emergence application (damage score 0-5)” value [11] of the same compound?
**A.** The value was 1.

**Q.** And the “Control of TRZAW after post-emergence application (damage score 0-5)” value [12]?
**A.** Its value is 0.

**Q.** How did the “Control of ALOMY after pre-emergence application (damage score 0-5)” value [1] turn out when `Cc1nn(-c2cncnc2)cc1N(C)C(=O)NC1CCCCC1` [Compound A44] was run?
**A.** The value was 0.

**Q.** What about the “Control of AVEFA after pre-emergence application (damage score 0-5)” value [2] of the same compound?
**A.** The value was 1.

**Q.** What about the “Control of ECHCG after pre-emergence application (damage score 0-5)” value [3] of the same compound?
**A.** The value was 1.

**Q.** And the “Control of LOLPE after pre-emergence application (damage score 0-5)” value [4]?
**A.** Its value is 1.

**Q.** What about the “Control of ORYSA after pre-emergence application (damage score 0-5)” value [5] of the same compound?
**A.** Its value is 1.

**Q.** What about the “Control of TRZAW after pre-emergence application (damage score 0-5)” value [6] of the same compound?
**A.** The value was 1.

**Q.** What about the “Control of ALOMY after post-emergence application (damage score 0-5)” value [7] of the same compound?
**A.** The value was 1.

**Q.** What about the “Control of AVEFA after post-emergence application (damage score 0-5)” value [8] of the same compound?
**A.** The value was 3.

**Q.** What about the “Control of ECHCG after post-emergence application (damage score 0-5)” value [9] of the same compound?
**A.** The value was 1.

**Q.** What about the “Control of LOLPE after post-emergence application (damage score 0-5)” value [10] of the same compound?
**A.** Its value is 2.

**Q.** What about the “Control of ORYSA after post-emergence application (damage score 0-5)” value [11] of the same compound?
**A.** Its value is 0.

**Q.** What about the “Control of TRZAW after post-emergence application (damage score 0-5)” value [12] of the same compound?
**A.** The value was 0.

**Q.** What does the source list for `CN(C(=O)Oc1ccccc1)c1cn(-c2cncc(F)c2)nc1C(F)(F)F` [Compound A46]?
**A.** Control of ALOMY after pre-emergence application (damage score 0-5) [1]: 0; Control of AVEFA after pre-emergence application (damage score 0-5) [2]: 0; Control of ECHCG after pre-emergence application (damage score 0-5) [3]: 0; Control of LOLPE after pre-emergence application (damage score 0-5) [4]: 0; Control of ORYSA after pre-emergence application (damage score 0-5) [5]: 0; Control of TRZAW after pre-emergence application (damage score 0-5) [6]: 0; Control of ALOMY after post-emergence application (damage score 0-5) [7]: 0; Control of AVEFA after post-emergence application (damage score 0-5) [8]: 2; Control of ECHCG after post-emergence application (damage score 0-5) [9]: 2; Control of LOLPE after post-emergence application (damage score 0-5) [10]: 1; Control of ORYSA after post-emergence application (damage score 0-5) [11]: 0; Control of TRZAW after post-emergence application (damage score 0-5) [12]: 0

**Q.** Which results are given for `CCOC(=O)N(C)c1cn(-c2cncc(F)c2)nc1C(F)(F)F` [Compound A47]?
**A.** Control of ALOMY after pre-emergence application (damage score 0-5) [1]: 0; Control of AVEFA after pre-emergence application (damage score 0-5) [2]: 0; Control of ECHCG after pre-emergence application (damage score 0-5) [3]: 1; Control of LOLPE after pre-emergence application (damage score 0-5) [4]: 0; Control of ORYSA after pre-emergence application (damage score 0-5) [5]: 0; Control of TRZAW after pre-emergence application (damage score 0-5) [6]: 0; Control of ALOMY after post-emergence application (damage score 0-5) [7]: 1; Control of AVEFA after post-emergence application (damage score 0-5) [8]: 2; Control of ECHCG after post-emergence application (damage score 0-5) [9]: 4; Control of LOLPE after post-emergence application (damage score 0-5) [10]: 0; Control of ORYSA after post-emergence application (damage score 0-5) [11]: 0; Control of TRZAW after post-emergence application (damage score 0-5) [12]: 1

**Q.** Which “Control of ALOMY after pre-emergence application (damage score 0-5)” value [1] does the source give for `CN(C(=O)OC(C)(C)C)c1cn(-c2cncc(F)c2)nc1C(F)(F)F` [Compound A48] here?
**A.** Its value is 1.

**Q.** And the “Control of AVEFA after pre-emergence application (damage score 0-5)” value [2]?
**A.** Its value is 0.

**Q.** What about the “Control of ECHCG after pre-emergence application (damage score 0-5)” value [3] of the same compound?
**A.** The value was 3.

**Q.** What about the “Control of LOLPE after pre-emergence application (damage score 0-5)” value [4] of the same compound?
**A.** The value was 1.

**Q.** And the “Control of ORYSA after pre-emergence application (damage score 0-5)” value [5]?
**A.** The value was 1.

**Q.** And the “Control of TRZAW after pre-emergence application (damage score 0-5)” value [6]?
**A.** The value was 1.

**Q.** And the “Control of ALOMY after post-emergence application (damage score 0-5)” value [7]?
**A.** The value was 1.

**Q.** And the “Control of AVEFA after post-emergence application (damage score 0-5)” value [8]?
**A.** The value was 3.

**Q.** What about the “Control of ECHCG after post-emergence application (damage score 0-5)” value [9] of the same compound?
**A.** The value was 4.

**Q.** And the “Control of LOLPE after post-emergence application (damage score 0-5)” value [10]?
**A.** Its value is 2.

**Q.** And the “Control of ORYSA after post-emergence application (damage score 0-5)” value [11]?
**A.** The value was 1.

**Q.** And the “Control of TRZAW after post-emergence application (damage score 0-5)” value [12]?
**A.** The value was 1.

— patent US10905123B2, “Herbicidal compounds” (Syngenta Participations AG, priority 2015, dated 2021)
